Values of other authors in patent US5086043A, “Production of Saponins of Lichi” (priority 1990, dated 1992).

Legend:
[1] = test system: carrageenin-induced swelling; settings: rats; established in the prior art
capillary permeability = settings: mice; established in the prior art

For `CC1(C)CC[C@]2(C(=O)O)CC[C@]3(C)C(=CC[C@@H]4[C@@]5(C)CC[C@H](O)C(C)(C)[C@@H]5CC[C@]43C)[C@@H]2C1` [oleanolic acid, Oleanolic acid], the carrageenin-induced swelling [1] is given as “inhibited carrageenin-induced swelling in rats” and the capillary permeability (capillary permeability) is given as “inhibited capillary permeability in mice”.
